# Data reported in US20240285513A1, “TOPICAL COMPOSITION AGAINST FINE LINES AND WRINKLES” (priority 2021, published 2024).
# Several values for one entry are separate records, joined by “and”; a condition that tells them apart may be missing. Identical values can stand only once. Marks after values point to notes of the source that are not given here.
# Experiments:
# Conditions in all cases: human
# [1] = test system: fine lines and wrinkles, glabella area; experiment: In vivo clinical study (Example 6): clinical grading of fine lines and wrinkles
# [2] = test system: muscle contraction in the glabella region; experiment: Comparative in vivo clinical study (Example 7): EMG muscle response with or without micro-roller
# From the text: (§1) The purpose of the comparative in vivo clinical study was to evaluate the efficacy of a combination of the three extracts for muscle relaxation and wrinkle reduction over four weeks of twice-daily application on Experimental Group 1 participants using a micro-roller (n=33) versus application on Experimental Group 2 participants without using a micro-roller (n=30). The combination of the three extracts was placed in a dermatologically acceptable vehicle as the test product. The dermatologically acceptable vehicle was designed to test the efficacy of the combination of the three extracts when applied with a micro-roller versus application without a micro-roller. Study participants in Experimental Group 1 used a 1.0 mm microroller. Study participants applied the composition containing the three extracts between their eyebrows in the morning and the evening after cleansing their face with a personal cleanser. For Experimental Group 1, study participants used the micro-roller 3 times per week in the evenings by rolling the micro-roller back and forth 4 to 5 times between eyebrows changing directions with each pass. […] The amounts of each extract used in the dermatologically acceptable vehicle was Rosmarinus officinalis leaf extract at 1 wt. %, Lavendula stoechas extract at 2 wt. %, and Acmella oleracea extract at 2 wt. %. […]
# [3] = test system: muscle contraction in the glabella region; experiment: In vivo clinical study (Example 6): electromyography (EMG) muscle response
# [4] = test system: fine lines and wrinkles, glabella area; experiment: Comparative in vivo clinical study (Example 7): clinical grading of fine lines and wrinkles
# From the text: as §1
substance,measurement,setting,value
onabotulinumtoxinA [BoTox],% Clinical Improvement of Wrinkles,[1],31%* and 35%*
same,% EMG Response (AUC),[2],58%* and 40%*
same,% EMG Response (AUC),[3],58%* and 40%*
same,% Clinical Improvement of Wrinkles,[4],31%* and 35%*
